{
  "source": "patent US20250332265A1",
  "about": "“PSMA TARGETED CONJUGATE COMPOUNDS AND USES THEREOF” (priority 2021, published 2025)",
  "key": {"PSMA [1]": {"molecular_target": "T1, PSMA (Homo sapiens, UniProt Q04609)", "T1 construct": "expressed in transfected cells; host or cells: PC3pip cells (PC3 retrovirally transduced with PSMA), from Dr. Michel Sadelain, MSKCC", "T1 sequence (Q04609 whole entry)": "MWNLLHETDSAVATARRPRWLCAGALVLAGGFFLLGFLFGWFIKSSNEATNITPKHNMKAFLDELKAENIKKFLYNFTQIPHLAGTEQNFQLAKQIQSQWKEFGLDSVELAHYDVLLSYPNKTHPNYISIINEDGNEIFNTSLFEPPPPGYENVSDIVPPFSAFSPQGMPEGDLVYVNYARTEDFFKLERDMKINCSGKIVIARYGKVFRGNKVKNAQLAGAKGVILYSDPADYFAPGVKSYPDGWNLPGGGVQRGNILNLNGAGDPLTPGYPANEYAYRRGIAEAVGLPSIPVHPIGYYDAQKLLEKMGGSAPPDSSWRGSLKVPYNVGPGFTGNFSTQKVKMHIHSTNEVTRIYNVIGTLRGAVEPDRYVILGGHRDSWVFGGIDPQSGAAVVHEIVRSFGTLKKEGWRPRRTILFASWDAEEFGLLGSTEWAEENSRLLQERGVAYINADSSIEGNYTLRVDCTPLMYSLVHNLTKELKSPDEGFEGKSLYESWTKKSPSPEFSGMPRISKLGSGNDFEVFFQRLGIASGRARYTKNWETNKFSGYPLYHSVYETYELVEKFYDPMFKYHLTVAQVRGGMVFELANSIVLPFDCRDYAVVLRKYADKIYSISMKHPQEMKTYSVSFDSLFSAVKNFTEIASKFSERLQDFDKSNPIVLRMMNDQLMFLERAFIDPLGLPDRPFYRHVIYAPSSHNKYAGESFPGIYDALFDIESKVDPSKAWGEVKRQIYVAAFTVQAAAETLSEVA", "test": "Competitive binding assay (3H-ZJ24 displacement), Example 1", "details": "PC3pip cells, 10 nM 3H-ZJ24; read-out: IC50, concentration required to inhibit 50% of binding", "quoted_text": "The assay was carried as previously reported by incubation PC3pip cells with different concentrations of drug conjugates in the presence of 10 nM N—[N—[(S)-1,3-dicarboxypropyl]carbamoyl]-S-[^3H]-methyl-L-cysteine (^3H-ZJ24) (GE Healthcare Life Sciences, Pittsburgh, PA). Radioactivity of cell pellet was counted by scintillation counter."}, "PSMA [2]": {"molecular_target": "T1, PSMA", "test": "Competition binding studies, Example 2", "details": "PC3pip cells, 12 nM 3H-ZJ24, 1 h, 37° C.; read-out: IC50, concentration required to inhibit 50% of the binding", "procedure": "PC3pip cells ([…]) was suspended in 200 μL of 50 mM Tris buffer, pH 7.5. The cells were incubated at 37° C. with different concentrations of PSMA-1-MMAE-IR700 or ZJ24 in the presence of 12 nM of 3H-ZJ24 for 1 h. The cells were then washed 3 times with cold PBS and cell-associated radioactivity was measured by scintillation counting. The concentration required to inhibit 50% of the binding (IC50) was determined by GraphPad Prism 3.0. Studies were performed in triplicate."}, "PC3pip and PC3flu tumors": {"tested_on": "PC3pip and PC3flu tumors", "test": "In vivo NIR imaging studies, Example 1", "design": "species or system mice", "details": "40 nmol/kg i.v., fluorescence imaging", "procedure": "Under guidelines of the animal care and use committee at Case Western Reserve University (IACUC #150033) 6 to 8-week old male Balb/cathymic nude mice were implanted subcutaneously with 1×10^6 of PC3flu and PC3pip on the left and right dorsum respectively. Mice received 40 nmol/kg of PSMA-1-VcMMAE-Cy5.5 or PSMA-1-McMMAE-Cy5.5 in PBS via tail vein injection when tumors reached 10 mm in diameter. Fluorescence imaging was performed using the Maestro In Vivo Imaging system (Perkin-Elmer). Multispectral images were unmixed into their component spectra (PSMA probes, autofluorescence, and background) to quantitate the average fluorescence intensity associated with the tumors using regions of interest (ROIs) around the tumors."}, "[3]": {"tested_on": "α-tubulin in PC3pip and PC3flu cells", "test": "Immunofluorescence analysis of alpha-tubulin", "format": "cell-based, human", "details": "5 nM, 24 hours", "procedure": "Cells on coverslips at about 70% confluency were incubated with 5 nM of MMAE, PSMA-1-VcMMAE-Cy5.5 or PSMA-1-McMMAE-Cy5.5 for 24 hours. Cells were washed and fixed with 4% paraformaldehyde for 10 minutes, permeabilized with 0.1% Triton™ X-100 for 10 minutes, and blocked with 1% BSA for 1 hour at room temperature. Alpha-tubulin (B5-1-2) Alexa Fluor 488 Mouse Monoclonal Antibody (Invitrogen) was then added at 2 μg/mL in 0.1% BSA and incubated for 3 hours at room temperature. Cells were counterstained with DAPI, mounted with Fluor-Mount aqueous mounting solution, and observed under Leica DM4000B fluorescence microscopy at 40×."}, "[4]": {"test": "Stability of conjugates incubated with PBS, Example 1", "format": "physicochemical", "details": "without enzyme", "procedure": "To investigate if PSMA-targeted drug conjugates were cleavable by cathepsin B, the two conjugates were incubated with or without the enzyme and chromatographed by HPLC. When the conjugates were incubated with PBS, both PSMA-1-VcMMAE-Cy5.5 and PSMA-1-McMMAE-Cy5.5 were stable (FIG. 1D)."}, "human liver cathepsin B": {"molecular_target": "T2, human liver cathepsin B (Homo sapiens, UniProt P07858)", "T2 construct": "purchased Anthens Research and Technology; host or cells: human liver (tissue-derived enzyme)", "test": "Enzymatic cleavage by cathepsin B, Example 1", "format": "in vitro ADME", "details": "2 μM conjugate, 37° C., HPLC", "procedure": "PSMA-1-VcMMAE-Cy5.5 or PSMA-1-McMMAE-Cy5.5 was added to 500 μL of activated human liver cathepsin B (Anthens Research and Technology) solution to a final concentration of 2 μM and incubated at 37° C. At different time intervals, 40 µL of the solution was taken out into tubes loaded with 1 μL of 1 mM E64 protease inhibitor. The mixture was vortexed and then stored at −80° C. for future HPLC analysis to assess degradation of PSMA-1-VcMMAE-Cy5.5 or PSMA-1-McMMAE-Cy5.5. Studies were performed in triplicate."}, "[5]": {"tested_on": "PSMA-positive PC3pip cells", "test": "In vitro cytotoxicity assay (CCK-8), PC3pip", "format": "cell-based, human", "details": "72 hours incubation, CCK-8", "procedure": "(§1) Cells (1,000/well) were seeded in 96-well culture plates the day before treatment. Cells were incubated with various concentrations of drugs for 72 hours and cell viability evaluated by CCK-8 (Dojindo). The concentration required to reach 50% of cell proliferation was determined (IC50) by GraphPad Prism 3.0."}, "[6]": {"tested_on": "PSMA receptor expressed on the PC3pip cells", "test": "In vitro cellular uptake studies, Example 1", "format": "cell-based, human", "details": "50 nM, 4 hours", "procedure": "PC3pip and PC3flu cells were seeded in p-Slide 8-Well Chamber Slide (ibidi GmbH) at 2,000 cells/well. When cells grew to 70% confluency, PSMA-1-VcMMAE-Cy5.5 or PSMA-1-McMMAE-Cy5.5 conjugations were added at 50 nM and incubated at 37° C. for 4 hours. Cells were washed with PBS and stained with DAPI and LysoOrange (Abcam) for 30 minutes at 37° and 5% CO2, after which they were washed again with PBS and filled with fresh medium. Selectivity was determined by including 20-fold excess of the PSMA-1 ligand. The uptake and localization of the drug conjugates were visualized under a Leica HyVolution SP8 confocal microscope at 40×."}, "[7]": {"tested_on": "PSMA-negative PC3flu cells", "test": "In vitro cytotoxicity assay (CCK-8), PC3flu", "format": "cell-based, human", "details": "72 hours incubation, CCK-8", "procedure": "as §1"}},
  "data": [
    {"smiles": "NCCCC[C@H](NC(=O)N[C@@H](CCC(=O)O)C(=O)O)C(=O)O", "note": "[ZJ24, (S)-2-(3-((S)-5-amino-1-carboxypentyl)-ureido)pentanedioic acid, reference compound]", "values": [
      {"measurement": "IC50", "setting": "PSMA [1]", "value": 11.7, "unit": "nM"},
      {"measurement": "IC50", "setting": "PSMA [2]", "value": "10.7 ± 0.89", "unit": "nM"}
    ]},
    {"smiles": "CC[C@H](C)[C@@H]([C@@H](CC(=O)N1CCC[C@H]1[C@H](OC)[C@@H](C)C(=O)N[C@H](C)[C@@H](O)c1ccccc1)OC)N(C)C(=O)[C@@H](NC(=O)[C@H](C(C)C)N(C)C(=O)CCCCCN1C(=O)CC(SC[C@H](NC(=O)[C@H](CCC(=O)O)NC(=O)[C@H](CCC(=O)O)NC(=O)[C@H](CCC(=O)O)NC(=O)CCCCCNC(=O)[C@H]2CC[C@H](CNC(=O)CC[C@H](NC(=O)N[C@@H](CCC(=O)O)C(=O)O)C(=O)O)CC2)C(=O)NCCCCCC(=O)N[C@@H](CCCCNC(=O)CCCCC[N+]2=C(/C=C/C=C/C=C3/N(C)c4ccc5ccccc5c4C3(C)C)C(C)(C)c3c2ccc2ccccc32)C(N)=O)C1=O)C(C)C", "note": "(stereo partly drawn) [PSMA-1-McMMAE-Cy5.5]", "values": [
      {"measurement": "time of peak uptake in PC3pip tumors", "setting": "PC3pip and PC3flu tumors", "value": 24, "unit": "h"},
      {"measurement": "disruption of α-tubulin network", "setting": "[3]", "value": "no obvious disruption of tubulin"},
      {"measurement": "stability when incubated with PBS", "setting": "[4]", "value": "stable"},
      {"measurement": "cleavage by cathepsin B", "setting": "human liver cathepsin B", "value": "remained intact"},
      {"measurement": "IC50 cytotoxicity, PC3pip cells", "setting": "[5]", "value": "no IC50 values could be obtained"},
      {"measurement": "cellular binding and uptake, competition with PSMA-1 ligand", "setting": "[6]", "value": "selective and specific for the PSMA receptor"},
      {"measurement": "IC50 cytotoxicity, PC3flu cells", "setting": "[7]", "value": "no IC50 values could be obtained"}
    ]}
  ]
}
